From patent US20070128217A1 (priority 2003, published 2007)

How the values were obtained:
[1] = test system: antibodies in sera from SARS patients (sera 1a, 1b, 2, 6, 37, 62, London, SARS-yellow, SARS-green); format: binding, human; design: Binding of serum 6 to linear peptides of protein X1 of SARS-CoV Urbani / Binding of serum 37 to linear peptides of protein X1 of SARS-CoV Urbani / Binding of serum 6 to looped/cyclic peptide (PEPSCAN-ELISA) / Binding of serum 37 to looped/cyclic peptide (PEPSCAN-ELISA) / Binding of serum 37 to looped/cyclic peptides of protein X1 of SARS-CoV Urbani / Binding of serum 6 to linear peptides of protein X2 / Binding of serum 37 to linear peptides of protein X2 / Binding of serum 37 to looped/cyclic peptides of protein X2 of SARS-CoV Urbani / Binding of serum 6 to linear peptides of protein M of SARS-CoV Urbani / Binding of serum 37 to linear peptides of protein M of SARS-CoV Urbani / Binding of serum 6 to looped/cyclic peptides of protein M of SARS-CoV Urbani / Binding of serum 37 to looped/cyclic peptides of protein M of SARS-CoV Urbani / Binding of serum 6 to linear peptides of protein X3 of SARS-CoV Urbani / Binding of serum 37 to linear peptides of protein X3 of SARS-CoV Urbani / Binding of serum 37 to looped/cyclic peptides of protein X3 of SARS-CoV Urbani / Binding of serum 6 to linear peptides of protein X4 of SARS-CoV Urbani / Binding of serum 37 to linear peptides of protein X4 of SARS-CoV Urbani / Binding of serum 37 to looped/cyclic peptides of protein X4 of SARS-CoV Urbani / Binding of serum 6 to linear peptides of protein X5 of SARS-CoV Urbani / Binding of serum 37 to linear peptides of protein X5 of SARS-CoV Urbani / Binding of serum 37 to looped/cyclic peptides of protein X5 of SARS-CoV Urbani / Binding of serum 6 to linear peptides of protein N of SARS-CoV Urbani / Binding of serum 37 to linear peptides of protein N of SARS-CoV Urbani / Binding of serum 6 to linear peptide (PEPSCAN-ELISA) / Binding of serum 1a to looped/cyclic peptides of protein N of SARS-CoV Urbani / Binding of serum 1b to looped/cyclic peptides of protein N of SARS-CoV Urbani / Binding of serum 2 to looped/cyclic peptides of protein N of SARS-CoV Urbani / Binding of serum 6 to looped/cyclic peptides of protein N of SARS-CoV Urbani / Binding of serum 37 to looped/cyclic peptides of protein N of SARS-CoV Urbani / Binding of serum 62 to looped/cyclic peptides of protein N of SARS-CoV Urbani / Binding of serum London to looped/cyclic peptides of protein N of SARS-CoV Urbani / Binding of serum SARS-green to looped/cyclic peptides of protein N of SARS-CoV Urbani: unit not given here
[2] = test system: control sera (pooled serum of ten healthy LUMC hospital workers; commercial negative donor pooled serum from the Dutch bloodbank); format: binding, human; design: Binding of Control serum LUMC to linear peptides / Binding of Control serum Blood-bank to linear peptides / Binding of Control serum LUMC to looped peptides / Binding of Control Serum Blood-Bank to Looped peptides / Binding of Control serum LUMC to linear peptides of the protein M of SARS-CoV Urbani / Binding of Control serum Blood-bank to linear peptides of the protein M of SARS-CoV Urbani / Binding of Control serum LUMC to looped peptides of the protein M of SARS-CoV Urbani / Binding of Control Serum Blood-Bank to Looped peptides of the protein M of SARS-CoV Urbani: unit not given here
[3] = test system: rabbit serum obtained by immunizing a rabbit with the SARS-CoV strain Frankfurt 1; format: binding; design: Binding of a rabbit serum to linear peptides / Binding of a rabbit serum to looped peptides / Rabbit serum linear peptides / Rabbit serum looped peptides / Binding of a rabbit serum to linear peptides of protein N of SARS-CoV Urbani (Rabbit serum linear peptides) / Binding of a rabbit serum to looped/cyclic peptides of protein N of SARS-CoV Urbani (Rabbit serum looped peptides): unit not given here
[4] = test system: recombinant human anti-SARS-CoV antibody 03-018; format: binding; design: Binding of antibody 03-018 to linear peptides of the N protein of SARS-CoV Urbani / Binding of antibody 03-018 to looped/cyclic peptides of the N protein of SARS-CoV Urbani: unit not given here

Row | Sequence | Binding of serum 1a to linear peptides of protein N of SARS-CoV Urbani [1] | Binding of serum 1a to looped/cyclic peptides of protein N of SARS-CoV Urbani [1] | Binding of serum 1b to linear peptides of protein N of SARS-CoV Urbani [1] | Binding of serum 1b to looped/cyclic peptides of protein N of SARS-CoV Urbani [1] | Binding of serum 2 to linear peptides of protein N of SARS-CoV Urbani [1] | Binding of serum 2 to looped/cyclic peptides of protein N of SARS-CoV Urbani [1] | Binding of serum 6 to linear peptides of protein N of SARS-CoV Urbani [1] | Binding of serum 6 to looped/cyclic peptides of protein N of SARS-CoV Urbani [1] | Binding of serum 37 to linear peptides of protein N of SARS-CoV Urbani [1] | Binding of serum 37 to looped/cyclic peptides of protein N of SARS-CoV Urbani [1] | Binding of serum 62 to linear peptides of protein N of SARS-CoV Urbani [1] | Binding of serum 62 to looped/cyclic peptides of protein N of SARS-CoV Urbani [1] | Binding of serum London to linear peptides of protein N of SARS-CoV Urbani [1] | Binding of serum London to looped/cyclic peptides of protein N of SARS-CoV Urbani [1] | Binding of serum SARS-green to linear peptides of protein N of SARS-CoV Urbani [1] | Binding of serum SARS-green to looped/cyclic peptides of protein N of SARS-CoV Urbani [1] | Binding of serum SARS-yellow to linear peptides of protein N of SARS-CoV Urbani [1] | Binding of serum SARS-yellow to looped/cyclic peptides of protein N of SARS-CoV Urbani [1] | Binding of a rabbit serum to linear peptides of protein N of SARS-CoV Urbani (Rabbit serum linear peptides) [3] | Binding of a rabbit serum to looped/cyclic peptides of protein N of SARS-CoV Urbani (Rabbit serum looped peptides) [3] | other results
1 | LNTPKDHIGTRNPNN | 0.2 | 0.4 | 0.1 | 0.3 | 0.3 | 0.4 | 0.2 | 0.3 | 0.7 | 0.6 | 0.6 | 0.5 | 0.5 | 0.5 | 0.2 | 0.4 | 0.6 | 0.4 | 0.2 | 0.0 | Binding of Control Serum Blood-Bank to Looped peptides [2]: 0.5; Binding of Control serum Blood-bank to linear peptides [2]: 0.8; Binding of Control serum LUMC to linear peptides [2]: 0.6; Binding of Control serum LUMC to looped peptides [2]: 0.6; Binding of antibody 03-018 to linear peptides of the N protein of SARS-CoV Urbani [4]: 0.1; Binding of antibody 03-018 to looped/cyclic peptides of the N protein of SARS-CoV Urbani [4]: 0.2
2 | LPAADMDDFSRQLQN | 0.2 | 0.3 | 0.2 | 0.2 | 0.4 | 0.5 | 0.3 | 0.4 | 0.7 | 0.6 | 0.6 | 0.4 | 0.5 | 0.3 | 0.2 | 0.5 | 0.6 | 0.6 | 0.2 | 0.2 | Control Serum Blood-Bank Looped peptides [2]: 0.4; Control serum Blood-bank linear peptides [2]: 0.7; Control serum LUMC linear peptides [2]: 0.7; Control serum LUMC looped peptides [2]: 0.4; Binding of antibody 03-018 to linear peptides of the N protein of SARS-CoV Urbani [4]: 0.1; Binding of antibody 03-018 to looped/cyclic peptides of the N protein of SARS-CoV Urbani [4]: 0.2
